From patent publication US9408817B2, “Methods for detecting inflammatory bowel disease in a feline” (Hill's Pet Nutrition, Inc., priority 2005, dated 2016) come the findings set out here.

Assay type in all cases: cell-based
Assay [1] concerns IL-1α. Description: cytokine expression by RT-PCR in PHA-stimulated lymphocytes: IL-1α. The conditions noted are these: PHA + 12.5 μM, healthy cats (no PHA) = 1. The protocol:
(§1) Lymphocytes are obtained from the blood of healthy cats and cats with IBD as described in Example 1 and then treated with DHA or EPA also as described in Example 1. Ribonucleic acid (RNA) is extracted from all samples, and real time polymerase chain reaction (RT-PCR) is performed to examine the changes in the level of expression of the following cytokines: interleukins 1α, 1β, 2, 6, and 10 (IL-1α, IL-1β, IL-2, IL-6, and IL-10), macrophage inhibitory factor (MIF), interferon gamma (IFN-γ), and transforming growth factor beta (TGF-β).

Assay [2] concerns IL-2. Kind of assay: cytokine expression by RT-PCR in PHA-stimulated lymphocytes: IL-2. The conditions noted are these: PHA + 12.5 μM, healthy cats (no PHA) = 1. How it is done:
as §1

The subject of assay [3] is IL-6. Kind of assay: cytokine expression by RT-PCR in PHA-stimulated lymphocytes: IL-6. The conditions noted are these: PHA + 12.5 μM, healthy cats (no PHA) = 1. The protocol: as §1
For assay [4], the system named is IL-10. Description: cytokine expression by RT-PCR in PHA-stimulated lymphocytes: IL-10. The conditions noted are these: PHA + 12.5 μM, healthy cats (no PHA) = 1. The protocol: as §1
For assay [5], the system named is IFN-γ. Kind of assay: cytokine expression by RT-PCR in PHA-stimulated lymphocytes: IFN-γ. The conditions noted are these: PHA + 12.5 μM, healthy cats (no PHA) = 1. How it is done: as §1
Assay [6] relates to TGF-β. Description: cytokine expression by RT-PCR in PHA-stimulated lymphocytes: TGF-β. The conditions noted are these: PHA + 12.5 μM, healthy cats (no PHA) = 1. How it is done: as §1
The subject of assay [7] is IL-1β. Description: cytokine expression by RT-PCR in PHA-stimulated lymphocytes: IL-1β. The conditions noted are these: PHA + 12.5 μM, healthy cats (no PHA) = 1. How it is done:
as §1

For assay [8], the system named is lymphocytes obtained from the blood of healthy cats and cats with IBD. Description: in vitro lymphocyte proliferation assay (BrdU ELISA, PHA-stimulated). The conditions noted are these: 40 h. How it is done:
The study utilizes eleven healthy cats and eleven cats with IBD, The cats with IBD are diagnosed by an intestinal biopsy, and have a history of chronic diarrhea. For six weeks, all cats are fed a nutritionally adequate dry food indicated for gastrointestinal distress. Blood is drawn from all cats at four, five, and six weeks. Samples with equal amounts of lymphocytes are used in an in vitro lymphocyte proliferation assay.
More specifically, 4.5 ml blood is mixed with 4.5 ml HBSS (Hank's Balanced Salt Solution)+25 mM HEPES. 4 ml of Ficoll-Paque Plus (Amersham) are slowly injected under the diluted blood. The mixture is centrifuged for twenty minutes at 500 g at 25° C. The upper layer is discarded. The lymphocytes are transferred into a clean tube, resuspended in 6 ml of HBSS+25 mM HEPES, and then centrifuged for ten minutes at 200 g at 25° C. The supernatant is discarded, and the lymphocytes are washed with 6 ml of HBSS. This centrifugation and wash step is repeated two more times. The washed lymphocytes are then resuspended in 5 ml of AIM medium (Invitrogen). Samples with 200,000 lymphocytes in 100 μl of AIM medium are used for the lymphocyte proliferation assay.
The lymphocyte proliferation assay is performed utilizing Amersham's Biotrak cell proliferation ELISA system, version 2. Lymphocyte samples are incubated in a 96-well plate with 7 μg/ml PHA (phytohemagglutinin) in the absence or presence of 12.5 μM and 25 μM DHA or EPA in a 37° C. incubator with 5% CO2 and 90% humidity for forty hours. After that, 20 μl of 100 μM BrdU is added, and the samples are incubated for two hours at 37° C. The plates are then removed from the incubator and centrifuged at 300 g for ten minutes at 25° C. The medium is removed by tapping and blotting, and the cells are dried in a chemical fume hood for at least fifteen minutes. 200 μl of fixative is added to every well and the plate is incubated for thirty minutes at room temperature. The cell fixative is removed by tapping and blotting. 200 μl of blocking buffer are added to every well, and the plate is incubated for thirty minutes at room temperature. The blocking buffer is removed by tapping and blotting, and 100 μl of anti-BrdU working solution is added to each well and incubated for ninety minutes at room temperature. The anti-BrdU solution is removed by tapping and blotting, and each well is rinsed three times with 300 μl washing solution. 100 μl 3.3′,5,5′-tetamethylbenzidine is added to each well and incubated for ten minutes or until color intensity is achieved. 25 μl 1M sulfuric acid is added to stop the reaction, and the plate is read on a fusion microplate reader (PerkinElmer) within five minutes.
(In general: Uptake of a labelled nucleoside into DNA is a usual measure of proliferation.)

Assay [9] has as its system MIF. Kind of assay: cytokine expression by RT-PCR in PHA-stimulated lymphocytes: MIF. The conditions noted are these: PHA + 12.5 μM, healthy cats (no PHA) = 1. The protocol:
as §1

Setting [10] is: lymphocytes of cats with IBD, 7 μg/ml PHA + 12.5 μM fatty acid.
Where [11] appears, read: lymphocytes of cats with IBD, 7 μg/ml PHA + 25 μM fatty acid.
The mark [12] stands for this setting: lymphocytes of healthy cats, 7 μg/ml PHA + 12.5 μM fatty acid.
Where [13] appears, read: lymphocytes of healthy cats, 7 μg/ml PHA + 25 μM fatty acid.

On to `CC/C=C\C/C=C\C/C=C\C/C=C\C/C=C\C/C=C\CCC(=O)O` [DHA, docosahexaenoic acid], for which the IL-1α expression is recorded as 0.57 in [1] (cats with IBD) and 0.86 in assay [1] (healthy cats). Further, the IL-2 expression is 3 in assay [2] (cats with IBD) and 21.05 in assay [2] (healthy cats). Moreover, the IL-6 expression stood at 13.9 in assay [3] (cats with IBD) and 5.75 in assay [3] (healthy cats). Further, the IL-10 expression in [4] (cats with IBD) is 0.45; in assay [4] (healthy cats) it was 0.95. Moreover, the figures for the IFN-γ expression in assay [5] (cats with IBD) and in assay [5] (healthy cats) were 4.9 and 37.6, respectively. The values for the TGF-β expression in assay [6] (cats with IBD) and in [6] (healthy cats) were 1.45 and 3.55, respectively. Besides, the IL-1β expression in assay [7] (cats with IBD) is reported as 1.85; in assay [7] (healthy cats) it was 0.87. For the same molecule, the “Lymphocyte Proliferation” value in [8] (setting [10]) is recorded as 0.49 ± 0.15; in assay [8] (setting [11]), 0.45 ± 0.18; in assay [8] (setting [12]), 0.28 ± 0.19; in [8] (setting [13]), 0.25 ± 0.17. Besides, the MIF expression amounted to 6.55 in [9] (cats with IBD) and 16.9 in assay [9] (healthy cats).
Consider `CC/C=C\C/C=C\C/C=C\C/C=C\C/C=C\CCCC(=O)O` [EPA, eicosapentaenoic acid], for which the IL-1α expression amounted to 0.46 in [1] (cats with IBD) and 1.05 in [1] (healthy cats). The IL-2 expression amounted to 1.89 in assay [2] (cats with IBD) and 59.4 in [2] (healthy cats). In addition, the IL-6 expression in assay [3] (cats with IBD) worked out at 6.45; in assay [3] (healthy cats), 10.6. The IL-10 expression in [4] (cats with IBD) is reported as 0.34; in assay [4] (healthy cats), 1.2. Moreover, the IFN-γ expression was 4.45 in [5] (cats with IBD) and 130.9 in assay [5] (healthy cats). Further, the TGF-β expression in [6] (cats with IBD) is on record as 2.4; in assay [6] (healthy cats), 4.7. Also, the IL-1β expression in assay [7] (cats with IBD) is 1.34; in assay [7] (healthy cats) it was 1.17. Also, the “Lymphocyte Proliferation” value in [8] (setting [10]) is 0.62 ± 0.27; in assay [8] (setting [11]) it was 0.63 ± 0.29; in assay [8] (setting [12]), 0.38 ± 0.23; in [8] (setting [13]), 0.37 ± 0.23. Also, the MIF expression was 4.45 in assay [9] (cats with IBD) and 14.05 in [9] (healthy cats).
